Legend:
Assay type in all cases: cell-based
Conditions in all cases: mda-mb-231, 24 h
[1] = tested on: MDA-MB-231; assay: Toxicity in human MDA-MB-231 cells assessed as reduction in cell viability at >1 uM incubated for 24 hrs by MTS assay
[2] = tested on: MDA-MB-231; assay: Toxicity in human MDA-MB-231 cells assessed as reduction in cell viability at <1 uM incubated for 24 hrs by MTS assay
[3] = tested on: MDA-MB-231; assay: Toxicity in human MDA-MB-231 cells assessed as reduction in cell viability at 10 uM incubated for 24 hrs by MTS assay

CN1\C(=C/C=C/C=C/C2N(CCCCCC(=O)NCCCCCC(=O)N3Cc4ccccc4C[C@H]3C(=O)NCC(=O)N3C4CCCCC4C[C@H]3C(=O)NC(CCCNC(=N)N)P(=O)(Oc3ccccc3)Oc3ccccc3)c3ccccc3C2(C)C)C(C)(C)c2ccccc21 (stereo partly drawn)
Activity [1]: Toxic | Activity [2]: Non-Toxic

COC(=O)CCC(=O)N1Cc2ccccc2C[C@H]1C(=O)NCC(=O)N1C2CCCCC2C[C@H]1C(=O)NC(CCCNC(=N)N)P(=O)(Oc1ccccc1)Oc1ccccc1 (stereo partly drawn)
Activity [3]: Non-Toxic

— ChEMBL document CHEMBL4342470, “Detection of Active Granzyme A in NK92 Cells with Fluorescent Activity-Based Probe” (J Med Chem, 2020)
